# In patent publication US20250108038A1 (priority 2023, published 2025):
# Several values for one entry are separate records, joined by “and”; a condition that tells them apart may be missing. Identical values can stand only once. Counter-ions that a name gives are not always drawn.
# Tested on: Long Evans rats
# Assay: Behavioral satiety sequence (BSS)
# Format: in vivo, Long Evans rat
# Text: The Behavioural Satiety Sequence (BSS) is a technique used to evaluate physiological satiety. It is based on the expression of a sequence of behaviors including eating, grooming, locomotor activity, followed by resting, which are typically observed in rodents post-ingestion (Halford et al, 1998, Pharmacology Biochemistry and Behaviour. 61(2): 159-168). The BSS is a widely used model for determining the effects of novel pharmaceuticals on food intake and measures of satiety in rodents (Oliveira et al, 2011, Revista de Nutrição. 24(4) 619-628), and to discriminate the cause of reduced food intake following pharmacological manipulation. For example, treatments that may reduce food intake by non-specific mechanisms, such as immobility, malaise, and taste adulteration, will disrupt this sequence (Halford et al, 1998, Pharmacology Biochemistry and Behaviour. 61(2): 159-168).
# Specifically, 12 male Long-Evans rats were food-deprived for 22 h with a 2 h feeding period each day. Rats were trained to consume daily food during the 2 h period over 25 days. The testing phase was initiated once the rats consistently consumed 16-18 g of food per day with ≤10% variance in amount of feed consumed. Feeding took place in designated individual boxes in a quiet room separate from the housing room. Continuous remote monitoring via video camera during feeding was used to assess the BSS. Food consumption was measured by weighing the total available food before and after the 2 h feeding window, correcting for spillage. Lorcaserin (1 mg/kg) was included as a reference control (Higgins et al, 2011, Neuropsychopharmacology. 37(5): 1177-1191). Subjects were tested using a repeated-measures, Latin square design with 2-3 days wash-out between treatment cycles.
# On scheduled test days, animals were monitored remotely via video camera during the feeding access period. The occurrence of four mutually exclusive behaviors (eating/drinking, grooming, active, rest) were individually scored. Over the 2 h feeding period, behaviors were assessed every 30 seconds. Scores were compiled into 23 5 min timebins (timebin 24 was removed due to early removal of animals) and the frequency of each behavior within each timebin was calculated to determine a temporal frequency of each measure (Rodgers et al, 2010, Pharmacology Biochemistry and Behaviour. 97: 3-14). Percentage time was plotted for each behavioral sequence in each timebin to compare between treatment groups (Higgins et al, 2011, Neuropsychopharmacology. 37(5): 1177-1191).
# [1] = 1 mg/kg, AVG of animals LT-1 to LT-12
# [2] = 1 mg/kg, raw score per animal LT-1 to LT-12, hydrochloride
# [3] = Lorcaserin 1 mg/kg s.c., AVG of the group
# [4] = Lorcaserin 1 mg/kg s.c., raw score per animal, hydrochloride
smiles,measurement,setting,value
"C[C@H]1CNCCc2ccc(Cl)cc21 [lorcaserin, Lorcaserin hydrochloride, reference compound]","BSS scoring A (active), Time Bin 13 (60-65 TOTAL), AVG",[1],0.20
same,"BSS scoring A (active), Time Bin 14 (65-70 TOTAL), AVG",[1],0.20
same,"BSS scoring A (active), Time Bin 15 (70-75 TOTAL), AVG",[1],0.12
same,"BSS scoring A (active), Time Bin 16 (75-80 TOTAL), AVG",[1],0.06
same,"BSS scoring A (active), Time Bin 17 (80-85 TOTAL), AVG",[1],0.07
same,"BSS scoring A (active), Time Bin 18 (85-90 TOTAL), AVG",[1],0.13
same,"BSS scoring E (eating/drinking), Time Bin 13 (60-65 TOTAL), AVG",[1],0.66
same,"BSS scoring E (eating/drinking), Time Bin 14 (65-70 TOTAL), AVG",[1],0.65
same,"BSS scoring E (eating/drinking), Time Bin 15 (70-75 TOTAL), AVG",[1],0.70
same,"BSS scoring E (eating/drinking), Time Bin 16 (75-80 TOTAL), AVG",[1],0.83
same,"BSS scoring E (eating/drinking), Time Bin 17 (80-85 TOTAL), AVG",[1],0.84
same,"BSS scoring E (eating/drinking), Time Bin 18 (85-90 TOTAL), AVG",[1],0.73
same,"BSS scoring G (grooming), Time Bin 13 (60-65 TOTAL), AVG",[1],0.07
same,"BSS scoring G (grooming), Time Bin 14 (65-70 TOTAL), AVG",[1],0.04
same,"BSS scoring G (grooming), Time Bin 15 (70-75 TOTAL), AVG",[1],0.12
same,"BSS scoring G (grooming), Time Bin 16 (75-80 TOTAL), AVG",[1],0.08
same,"BSS scoring G (grooming), Time Bin 17 (80-85 TOTAL), AVG",[1],0.04
same,"BSS scoring G (grooming), Time Bin 18 (85-90 TOTAL), AVG",[1],0.10
same,"BSS scoring R (resting), Time Bin 13 (60-65 TOTAL), AVG",[1],0.08
same,"BSS scoring R (resting), Time Bin 14 (65-70 TOTAL), AVG",[1],0.11
same,"BSS scoring R (resting), Time Bin 15 (70-75 TOTAL), AVG",[1],0.07
same,"BSS scoring R (resting), Time Bin 16 (75-80 TOTAL), AVG",[1],0.03
same,"BSS scoring R (resting), Time Bin 17 (80-85 TOTAL), AVG",[1],0.05
same,"BSS scoring R (resting), Time Bin 18 (85-90 TOTAL), AVG",[1],0.03
same,"BSS scoring A (active), Time Bin 13 (60-65 TOTAL)",[2],6 and 5 and 2 (2×) and 1 (2×) and 0 (4×) and 4 and 3
same,"BSS scoring A (active), Time Bin 14 (65-70 TOTAL)",[2],4 (3×) and 2 (4×) and 0 and 1 (4×)
same,"BSS scoring A (active), Time Bin 15 (70-75 TOTAL)",[2],0 (5×) and 1 (4×) and 4 (2×) and 2
same,"BSS scoring A (active), Time Bin 16 (75-80 TOTAL)",[2],0 (9×) and 2 and 1 and 4
same,"BSS scoring A (active), Time Bin 17 (80-85 TOTAL)",[2],0 (8×) and 2 (4×)
same,"BSS scoring A (active), Time Bin 18 (85-90 TOTAL)",[2],4 and 0 (5×) and 1 (4×) and 6 and 2
same,"BSS scoring E (eating/drinking), Time Bin 13 (60-65 TOTAL)",[2],4 and 3 and 6 and 5 (2×) and 7 (2×) and 8 (3×) and 9 (2×)
same,"BSS scoring E (eating/drinking), Time Bin 14 (65-70 TOTAL)",[2],6 (2×) and 5 and 7 and 10 and 4 (2×) and 8 (3×) and 3 and 9
same,"BSS scoring E (eating/drinking), Time Bin 15 (70-75 TOTAL)",[2],6 (3×) and 9 (4×) and 2 and 10 and 3 and 8 and 7
same,"BSS scoring E (eating/drinking), Time Bin 16 (75-80 TOTAL)",[2],10 (7×) and 1 and 9 (2×) and 5 and 6
same,"BSS scoring E (eating/drinking), Time Bin 17 (80-85 TOTAL)",[2],8 (3×) and 9 (3×) and 10 (3×) and 7 (2×) and 6
same,"BSS scoring E (eating/drinking), Time Bin 18 (85-90 TOTAL)",[2],4 and 9 (2×) and 6 (2×) and 10 (3×) and 7 (3×) and 3
same,"BSS scoring G (grooming), Time Bin 13 (60-65 TOTAL)",[2],0 (8×) and 2 (2×) and 3 and 1
same,"BSS scoring G (grooming), Time Bin 14 (65-70 TOTAL)",[2],0 (8×) and 1 (3×) and 2
same,"BSS scoring G (grooming), Time Bin 15 (70-75 TOTAL)",[2],0 (6×) and 3 and 1 (4×) and 7
same,"BSS scoring G (grooming), Time Bin 16 (75-80 TOTAL)",[2],0 (10×) and 6 and 3
same,"BSS scoring G (grooming), Time Bin 17 (80-85 TOTAL)",[2],0 (8×) and 1 (3×) and 2
same,"BSS scoring G (grooming), Time Bin 18 (85-90 TOTAL)",[2],2 (3×) and 1 (3×) and 0 (5×) and 3
same,"BSS scoring R (resting), Time Bin 13 (60-65 TOTAL)",[2],0 (7×) and 2 and 4 and 1 (3×)
same,"BSS scoring R (resting), Time Bin 14 (65-70 TOTAL)",[2],0 (7×) and 1 (2×) and 4 (2×) and 3
same,"BSS scoring R (resting), Time Bin 15 (70-75 TOTAL)",[2],4 and 1 (2×) and 0 (8×) and 2
same,"BSS scoring R (resting), Time Bin 16 (75-80 TOTAL)",[2],0 (9×) and 1 (2×) and 2
same,"BSS scoring R (resting), Time Bin 17 (80-85 TOTAL)",[2],2 (2×) and 1 (2×) and 0 (8×)
same,"BSS scoring R (resting), Time Bin 18 (85-90 TOTAL)",[2],0 (9×) and 2 and 1 (2×)
same,effect on the behavioral satiety sequence (BSS),"Compound I-19 0.1-3 mg/kg IP, lorcaserin 1 mg/kg SC",preserved the BSS at the 1 mg/kg dose
same,"BSS scoring A (active), Time Bin 7 (30-35 TOTAL), AVG",[3],0.18
same,"BSS scoring A (active), Time Bin 8 (35-40 TOTAL), AVG",[3],0.21
same,"BSS scoring A (active), Time Bin 9 (40-45 TOTAL), AVG",[3],0.10
same,"BSS scoring A (active), Time Bin 10 (45-50 TOTAL), AVG",[3],0.16
same,"BSS scoring A (active), Time Bin 11 (50-55 TOTAL), AVG",[3],0.09
same,"BSS scoring A (active), Time Bin 12 (55-60 TOTAL), AVG",[3],0.10
same,"BSS scoring E (eating/drinking), Time Bin 7 (30-35 TOTAL), AVG",[3],0.68
same,"BSS scoring E (eating/drinking), Time Bin 8 (35-40 TOTAL), AVG",[3],0.68
same,"BSS scoring E (eating/drinking), Time Bin 9 (40-45 TOTAL), AVG",[3],0.74
same,"BSS scoring E (eating/drinking), Time Bin 10 (45-50 TOTAL), AVG",[3],0.78
same,"BSS scoring E (eating/drinking), Time Bin 11 (50-55 TOTAL), AVG",[3],0.75
same,"BSS scoring E (eating/drinking), Time Bin 12 (55-60 TOTAL), AVG",[3],0.83
same,"BSS scoring G (grooming), Time Bin 7 (30-35 TOTAL), AVG",[3],0.12
same,"BSS scoring G (grooming), Time Bin 8 (35-40 TOTAL), AVG",[3],0.09
same,"BSS scoring G (grooming), Time Bin 9 (40-45 TOTAL), AVG",[3],0.12
same,"BSS scoring G (grooming), Time Bin 10 (45-50 TOTAL), AVG",[3],0.01
same,"BSS scoring G (grooming), Time Bin 11 (50-55 TOTAL), AVG",[3],0.04
same,"BSS scoring G (grooming), Time Bin 12 (55-60 TOTAL), AVG",[3],0.05
same,"BSS scoring R (resting), Time Bin 7 (30-35 TOTAL), AVG",[3],0.03
same,"BSS scoring R (resting), Time Bin 8 (35-40 TOTAL), AVG",[3],0.03
same,"BSS scoring R (resting), Time Bin 9 (40-45 TOTAL), AVG",[3],0.04
same,"BSS scoring R (resting), Time Bin 10 (45-50 TOTAL), AVG",[3],0.06
same,"BSS scoring R (resting), Time Bin 11 (50-55 TOTAL), AVG",[3],0.12
same,"BSS scoring R (resting), Time Bin 12 (55-60 TOTAL), AVG",[3],0.02
same,"BSS scoring A (active), Time Bin 7 (30-35 TOTAL)",[4],0 (4×) and 3 and 1 (3×) and 4 and 2 (2×) and 7
same,"BSS scoring A (active), Time Bin 8 (35-40 TOTAL)",[4],4 (2×) and 2 (2×) and 1 (4×) and 3 (3×) and 0
same,"BSS scoring A (active), Time Bin 9 (40-45 TOTAL)",[4],0 (7×) and 2 and 1 (3×) and 7
same,"BSS scoring A (active), Time Bin 10 (45-50 TOTAL)",[4],2 (2×) and 4 and 0 (7×) and 10 and 1
same,"BSS scoring A (active), Time Bin 11 (50-55 TOTAL)",[4],0 (6×) and 2 (2×) and 1 (3×) and 4
same,"BSS scoring A (active), Time Bin 12 (55-60 TOTAL)",[4],2 (2×) and 0 (6×) and 1 (3×) and 5
same,"BSS scoring E (eating/drinking), Time Bin 7 (30-35 TOTAL)",[4],6 (4×) and 7 (2×) and 8 (2×) and 5 and 3 and 10 (2×)
same,"BSS scoring E (eating/drinking), Time Bin 8 (35-40 TOTAL)",[4],5 (3×) and 7 and 9 and 8 (3×) and 4 and 6 (2×) and 10
same,"BSS scoring E (eating/drinking), Time Bin 9 (40-45 TOTAL)",[4],10 (2×) and 7 (2×) and 9 (2×) and 8 (3×) and 2 and 6 and 5
same,"BSS scoring E (eating/drinking), Time Bin 10 (45-50 TOTAL)",[4],8 (2×) and 6 (2×) and 10 (4×) and 0 and 9 (2×) and 7
same,"BSS scoring E (eating/drinking), Time Bin 11 (50-55 TOTAL)",[4],10 (3×) and 7 (3×) and 1 and 8 (4×) and 6
same,"BSS scoring E (eating/drinking), Time Bin 12 (55-60 TOTAL)",[4],6 and 7 (2×) and 9 (5×) and 10 (3×) and 5
same,"BSS scoring G (grooming), Time Bin 7 (30-35 TOTAL)",[4],3 and 1 (3×) and 2 (4×) and 0 (4×)
same,"BSS scoring G (grooming), Time Bin 8 (35-40 TOTAL)",[4],1 (7×) and 0 (3×) and 2 (2×)
same,"BSS scoring G (grooming), Time Bin 9 (40-45 TOTAL)",[4],0 (4×) and 1 (5×) and 2 and 3 and 4
same,"BSS scoring G (grooming), Time Bin 10 (45-50 TOTAL)",[4],0 (11×) and 1
same,"BSS scoring G (grooming), Time Bin 11 (50-55 TOTAL)",[4],0 (7×) and 1 (5×)
same,"BSS scoring G (grooming), Time Bin 12 (55-60 TOTAL)",[4],2 (2×) and 0 (8×) and 1 (2×)
same,"BSS scoring R (resting), Time Bin 7 (30-35 TOTAL)",[4],1 (3×) and 0 (9×)
same,"BSS scoring R (resting), Time Bin 8 (35-40 TOTAL)",[4],0 (9×) and 1 (3×)
same,"BSS scoring R (resting), Time Bin 9 (40-45 TOTAL)",[4],0 (9×) and 1 (2×) and 3
same,"BSS scoring R (resting), Time Bin 10 (45-50 TOTAL)",[4],0 (8×) and 4 and 1 (3×)
same,"BSS scoring R (resting), Time Bin 11 (50-55 TOTAL)",[4],0 (7×) and 2 (3×) and 7 and 1
